Laboratory results published in US6562620B2, “Medium to promote islet cell survival” (McGill University, priority 1997, dated 2003).

Tests used:
[1] = tested on: erk1 and erk2; test: erk1 and erk2 activation in isolated islets; assay type: cell-based; details: human islets; FIG. 6
Source text: (§1) The former two pathways are known to be associated with the induction of the apoptotic program, while the latter may be protective.
Signalling through erk has been associated with cell differentiation and cell survival (FIG. 6).

[2] = tested on: islets; test: Cell death detection ELISA (DNA fragmentation) of cultured islets; assay type: cell-based, Syrian golden hamsters; details: 3 days serum then 9 days in 25% DCM or 34 ng/ml IGF-II; mean±SEM, n=6; FIG. 10
Method: Three experimental groups were designed for this study: Group 1 (control), with 100 islets per culture flask; Group 2 (islets plus ducts), with 100 islets plus 80 ducts per flask; and Group 3 (islets in 25% DCM), with 100 islets per flask.
All tissues were embedded in rat tail collagen and incubated in a humidified atmosphere of 95% air, 5% CO2 at 37° C. The baseline medium for all groups was DMEM/F12, supplemented with 10% NuSerum for three days at the start of the culture period, followed by 9 days of serum-free incubation. The medium was changed every other day.
After a 12 day incubation period, the media was removed and 3 ml of collagenase XI (0.25 mg/ml) was added to each flask for 40 min. The islets were hand-picked and washed three times in Hank's buffered salt solution (HBSS, Gibco, Montreal, Quebec, Canada). The presence of DNA fragmentation, a characteristic feature of apoptosis was determined using a cell death detection ELISA (Boehringer Mannheim, Laval, Quebec). The results were expressed as absorbance at 405 nm and corrected for total DNA content. DNA (μg) was measured by fluorometry using disbenzimidazole (Hoechst 33258, Sigma, Montreal, Quebec) as described (Labarca & Pagen, 1987, Analytical Biochemistry 102:44-52).
The islets were embedded in rat tail collagen and cultured in DMEM/F12 supplemented with 10% NuSerum. […]

[3] = tested on: p38; test: p38 activation in canine islets (Western blot); assay type: cell-based; details: collagen 400 μg/ml
Source text: as §1
Signaling through the p38 MAP kinase is one pathway whose downstream effectors have been implicated in […].
In addition to growth factors, evidence is provided for the beneficial effect of matrix molecules, e.g. fibronectin for human islets, and collagen for canine islets (FIGS. 4 and 5) The data for p38 activation and its modulation by collagen represents the effect of 200 μg/ml of collagen type 1. Not shown, is that collagen in a concentration of 400 μg/ml will decrease p38 activation by over 50%.

IGF-I: insulin-like growth factor-1
effect on erk1 and erk2 activation [1]: positive effect

IGF-II: insulin-like growth factor II, growth factor added at 34 ng/ml
cell death ELISA (DNA fragmentation), IGF-II study [2]: 2.5 ± 1.0

collagen
decrease of p38 activation [3]: over 50%

insulin
effect on erk1 and erk2 activation [1]: positive effect
